The results in this text go back to US6620811B2, “Isonicotin- and nicotinamide derivatives of benzothiazoles” (Hoffmann-La Roche Inc., priority 2001, dated 2003).

The target in this experiment is T1, human adenosine A2A receptor (Homo sapiens, UniProt P29274).
T1 construct: expressed in transfected cells; host or cells: CHO cells, semliki forest virus expression system; membrane preparation
Nature of the experiment: Human adenosine A2A receptor [3H]-SCH-583261 binding assay (SPA, CHO cell membranes). The settings on record: [3H]-SCH-583261 1 nM, membranes of CHO cells expressing the recombinant receptor, Ki by Cheng-Prussoff equation; for Ki: read-out: hA2 (pKi) (converted). The protocol:
Human Adenosine A2A Receptor
The human adenosine A2A receptor was recombinantly expressed in chinese hamster ovary (CHO) cells using the semliki forest virus expression system. Cells were harvested, washed twice by centrifugation, homogenised and again washed by centrifugation. The final washed membrane pellet was suspended in a Tris (50 mM) buffer containing 120 mM NaCl, 5 mM KCl, 2 mM CaCl2 and 10 mM MgCl2 (pH 7.4) (buffer A). The [^3H]-SCH-583261 (Dionisotti et al., 1997, Br J Pharmacol 121, 353; 1 nM) binding assay was carried out in 96-well plates in the presence of 2.5 μg of membrane protein, 0.5 mg of Ysi-poly-1-lysine SPA beads and 0.1 U adenosine deaminiase in a final volume of 200 μl of buffer A. Non-specific binding was defined using xainthine amine congener (XAC; 2 μM). Compounds were tested at 10 concentrations from 10 μM-0.3 nM. All assays were conducted in duplicate and repeated at least two times. Assay plates were incubated for 1 hour at room temperature before centrifugation and then bound ligand determined using a Packard Topcount scintillation counter. IC50 values were calculated using a non-linear curve fitting program and Ki values calculated using the Cheng-Prussoff equation.

T1 sequence (P29274 whole entry): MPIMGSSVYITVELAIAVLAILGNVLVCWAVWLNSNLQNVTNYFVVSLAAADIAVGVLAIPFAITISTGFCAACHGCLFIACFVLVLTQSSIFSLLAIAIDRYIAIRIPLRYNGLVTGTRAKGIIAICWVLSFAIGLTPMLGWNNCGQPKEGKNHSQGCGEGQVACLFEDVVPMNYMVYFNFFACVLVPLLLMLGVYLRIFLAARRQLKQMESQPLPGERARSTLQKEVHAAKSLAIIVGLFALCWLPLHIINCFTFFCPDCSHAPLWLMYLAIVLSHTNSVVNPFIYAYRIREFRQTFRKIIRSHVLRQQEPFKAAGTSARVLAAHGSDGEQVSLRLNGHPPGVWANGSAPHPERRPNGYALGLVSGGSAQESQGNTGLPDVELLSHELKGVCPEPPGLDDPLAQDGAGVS

Regarding `COc1ccc(N2CCOCC2)c2sc(NC(=O)c3ccnc(SC)c3)nc12` [Example 80, N-(4-Methoxy-7-morpholin-4-yl-benzothiazol-2-yl)-2-methylsulfanyl-isonicotinamide], the Ki is 2.09 nM.
On the same count and under the same terms, as for `COc1ccc(N2CCOCC2)c2sc(NC(=O)c3ccnc(OCCN4CCOCC4)c3)nc12` [Example 87, N-(4-Methoxy-7-morpholin-4-yl-benzothiazol-2-yl)-2-(2-morpholin-4-yl-ethoxy)-isonicotinamide], the figure is 0.851 nM.
Turning to `COc1ccc(N2CCOCC2)c2sc(NC(=O)c3ccnc(N4CC(OC)C4)c3)nc12` [Example 75, 2-(3-Methoxy-azetidin-1-yl)-N-(4-methoxy-7-morpholin-4-yl-benzothiazol-2-yl)-isonicotinamide], the Ki is 1.91 nM.
On to `COc1ccc(N2CCCCC2)c2sc(NC(=O)c3ccnc(N4CCN(C)CC4)c3)nc12` [Example 100, N-(4-Methoxy-7-piperidin-1-yl-benzothiazol-2-yl)-2-(4-methyl-piperazin-1-yl)-isonicotinamide], for which the Ki is 1.55 nM.
Still for that read-out and setting: next, `COc1ccc(N2CCOCC2)c2sc(NC(=O)c3ccnc(OCCN(C)C)c3)nc12` [Example 86, 2-(2-Dimethylamino-ethoxy)-N-(4-methoxy-7-morpholin-4-yl-benzothiazol-2-yl)-isonicotinamide]: 0.501 nM; `COc1ccc(N2CCOCC2)c2sc(NC(=O)c3ccnc(N4CCS(=O)(=O)CC4)c3)nc12` [Example 73, 2-(1,1-Dioxo-1l6-thiomorpholin-4-yl)-N-(4-methoxy-7-morpholin-4-yl-benzothiazol-2-yl)-isonicotinamide]: 1.82 nM.
As for `COc1ccc(N2CCCCC2)c2sc(NC(=O)c3ccnc(CN4CCCC4)c3)nc12` [Example 70, N-(4-Methoxy-7-piperidin-1-yl-benzothiazol-2-yl)-2-pyrrolidin-1-yl-methyl-isonicotinamide], the “hA2 (pKi)” value came to 8.9.
With `CCOc1cc(C(=O)Nc2nc3c(OC)ccc(N4CCOCC4)c3s2)ccn1` [Example 3, 2-Ethoxy-N-(4-methoxy-7-morpholin-4-yl-benzothiazol-2-yl)-isonicotinamide], the Ki was 3.09 nM.
The same measure, in the same setting: next, `COc1ccc(N2CCOCC2)c2sc(NC(=O)c3ccnc(N(C)CCc4ccccc4)c3)nc12` [Example 97, N-(4-Methoxy-7-morpholin-4-yl-benzothiazol-2-yl)-2-(methyl-phenethyl-amino)-isonicotinamide]: 2.24 nM.
As to `COc1ccc(N2CCOCC2)c2sc(NC(=O)c3ccnc(NCCN(C)C)c3)nc12` [Example 88, 2-(2-Dimethylamino-ethylamino)-N-(4-methoxy-7-morpholin-4-yl-benzothiazol-2-yl)-isonicotinamide], the Ki was 0.457 nM.
On the same count and under the same terms, next, `COc1cc(C(=O)Nc2nc3c(OC)ccc(-c4ccccc4)c3s2)ccn1` [Example 101, 2-Methoxy-N-(4-methoxy-7-phenyl-benzothiazol-2-yl)-isonicotinamide]: 1.26 nM.
Same read-out and setting: next, `COc1ccc(N2CCOCC2)c2sc(NC(=O)c3ccnc(N(C)C4CCCCC4)c3)nc12` [Example 95, 2-(Cyclohexyl-methyl-amino)-N-(4-methoxy-7-morpholin-4-yl-benzothiazol-2-yl)-isonicotinamide]: 1.91 nM.
With `COc1ccc(N2CCOCC2)c2sc(NC(=O)c3ccnc(NCCN4CCOCC4)c3)nc12` [Example 18, N-(4-Methoxy-7-morpholin-4-yl-benzothiazol-2-yl)-2-(2-morpholin-4-yl-ethylamino)-isonicotinamide], the Ki was 0.617 nM.
`COc1ccc(N2CCOCC2)c2sc(NC(=O)c3ccnc(CNCCCC(=O)OC(C)(C)C)c3)nc12` [Example 62, 4-{[4-(4-Methoxy-7-morpholin-4-yl-benzothiazol-2-yl-carbamoyl)-pyridin-2-yl-methyl]-amino}-butyric Acid tert-Butyl Ester]: the Ki is 1.58 nM.
Take `COc1ccc(N2CCCCC2)c2sc(NC(=O)c3ccnc(CN4CCOCC4)c3)nc12` [Example 71, N-(4-Methoxy-7-piperidin-1-yl-benzothiazol-2-yl)-2-morpholin-4-yl-methyl-isonicotinamide]: the “hA2 (pKi)” value worked out at 8.7.
Take `CCCNc1cc(C(=O)Nc2nc3c(OC)ccc(N4CCOCC4)c3s2)ccn1` [Example 93, N-(4-Methoxy-7-morpholin-4-yl-benzothiazol-2-yl)-2-propylamino-isonicotinamide]: the Ki was 1.07 nM.
As to `COc1cc(C(=O)Nc2nc3c(OC)ccc(N4CCOCC4)c3s2)ccn1` [Example 5, 2-Methoxy-N-(4-methoxy-7-morpholin-4-yl-benzothiazol-2-yl)-isonicotinamide], the Ki is 2.63 nM.
On to `COc1ccc(N2CCOCC2)c2sc(NC(=O)c3ccnc(NCc4ccccc4)c3)nc12` [Example 83, 2-Benzylamino-N-(4-methoxy-7-morpholin-4-yl-benzothiazol-2-yl)-isonicotinamide], for which the Ki was 1.74 nM.
Same read-out and setting: as for `COc1ccc(N2CCOCC2)c2sc(NC(=O)c3ccnc(NCc4ccccn4)c3)nc12` [Example 13, N-(4-Methoxy-7-morpholin-4-yl-benzothiazol-2-yl)-2-[(pyridin-2-ylmethyl)-amino]-isonicotinamide], the figure is 1.55 nM; as for `COc1ccc(N2CCOCC2)c2sc(NC(=O)c3ccnc(NC4CCC4)c3)nc12` [Example 90, 2-Cyclobutylamino-N-(4-methoxy-7-morpholin-4-yl-benzothiazol-2-yl)-isonicotinamide], 1.74 nM; as for `COc1ccc(N2CCOCC2)c2sc(NC(=O)c3ccnc(CN4CCOCC4)c3)nc12` [Example 56, N-(4-Methoxy-7-morpholin-4-yl-benzothiazol-2-yl)-2-morpholin-4-ylmethyl-isonicotinamide], 1.58 nM.
Consider `COCCNCc1cc(C(=O)Nc2nc3c(OC)ccc(N4CCOCC4)c3s2)ccn1` [Example 47, 2-[(2-Methoxy-ethylamino)-methyl]-N-(4-methoxy-7-morpholin-4-yl-benzothiazol-2-yl)-isonicotinamide], for which the Ki was 2.51 nM.
Same read-out and setting: as for `COCCOc1cc(C(=O)Nc2nc3c(OC)ccc(N4CCOCC4)c3s2)ccn1` [Example 1, 2-(2-Methoxy-ethoxy)-N-(4-methoxy-7-morpholin-4-yl-benzothiazol-2-yl)-isonicotinamide], the figure is 3.16 nM; as for `COc1ccc(N2CCOCC2)c2sc(NC(=O)c3ccnc(OC4CCCC4)c3)nc12` [Example 85, 2-Cyclopentyloxy-N-(4-methoxy-7-morpholin-4-yl-benzothiazol-2-yl)-isonicotinamide], 2.95 nM; as for `CCCN(C)c1cc(C(=O)Nc2nc3c(OC)ccc(N4CCOCC4)c3s2)ccn1` [Example 94, N-(4-Methoxy-7-morpholin-4-yl-benzothiazol-2-yl)-2-(methyl-propyl-amino)-isonicotinamide], 1.2 nM.
The same measure, in the same setting: as for `CCSc1cc(C(=O)Nc2nc3c(OC)ccc(N4CCOCC4)c3s2)ccn1` [Example 81, 2-Ethylsulfanyl-N-(4-methoxy-7-morpholin-4-yl-benzothiazol-2-yl)-isonicotinamide], the figure is 2.4 nM; as for `COc1ccc(N2CCOCC2)c2sc(NC(=O)c3ccnc(OCc4ccccc4)c3)nc12` [Example 4, 2-Benzyloxy-N-(4-methoxy-7-morpholin-4-yl-benzothiazol-2-yl)-isonicotinamide], 2.63 nM.
The same measure, in the same setting: as for `CCOC1CN(c2cc(C(=O)Nc3nc4c(OC)ccc(N5CCOCC5)c4s3)ccn2)C1` [Example 76, 2-(3-Ethoxy-azetidin-1-yl)-N-(4-methoxy-7-morpholin-4-yl-benzothiazol-2-yl)-isonicotinamide], the figure is 1.74 nM.
In the case of `COc1ccc(N2CCOCC2)c2sc(NC(=O)c3ccc(OC(C)C)nc3)nc12` [Example 44, 6-Isopropoxy-N-(4-methoxy-7-morpholin-4-yl-benzothiazol-2-yl)-nicotinamide], the Ki is 3.02 nM.
Same read-out and setting: next, `COc1ccc(N2CCOCC2)c2sc(NC(=O)c3ccnc(CN4CCCC4)c3)nc12` [Example 54, N-(4-Methoxy-7-morpholin-4-yl-benzothiazol-2-yl)-2-pyrrolidin-1-ylmethyl-isonicotinamide]: 2 nM.
Same read-out and setting: next, `COc1ccc(N2CCOCC2)c2sc(NC(=O)c3ccnc(OC(C)C)c3)nc12` [Example 77, 2-Isopropoxy-N-(4-methoxy-7-morpholin-4-yl-benzothiazol-2-yl)-isonicotinamide]: 2.88 nM.
On the same count and under the same terms, as for `COc1ccc(N2CCOCC2)c2sc(NC(=O)c3ccnc(N4CCN(C)CC4)c3)nc12` [Example 10, N-(4-Methoxy-7-morpholin-4-yl-benzothiazol-2-yl)-2-(4-methyl-piperazin-1-yl)-isonicotinamide], the figure is 0.724 nM; as for `CNCc1cc(C(=O)Nc2nc3c(OC)ccc(N4CCOCC4)c3s2)ccn1` [Example 58, N-(4-Methoxy-7-morpholin-4-yl-benzothiazol-2-yl)-2-methylaminomethyl-isonicotinamide], 2 nM; as for `COc1ccc(N2CCOCC2)c2sc(NC(=O)c3ccnc(OCCNC(C)=O)c3)nc12` [Example 92, 2-(2-Acetylamino-ethoxy)-N-(4-methoxy-7-morpholin-4-yl-benzothiazol-2-yl)-isonicotinamide], 1.58 nM.
